Patent US20230075856A1, “CYCLIC SULFAMIDE COMPOUNDS FOR TREATMENT OF HBV” (Assembly Biosciences, Inc., priority 2018, published 2023)
Where two headings read alike, the source gives them in different places.

System: HBV viral load production from HepAD38 cells
Test: Viral production from HepAD38 cells: viral load in supernatant by qPCR of the HBV core sequence
Format: cell-based
Details: 5 days incubation, qPCR of supernatant HBV DNA vs DMSO control, read-out: viral load lowering EC50 (Activity)
Experimental: Assay Measuring Activity of Test Compounds on Viral Production from HepAD38 Cells
HepAD38 cells grown in a T-150 flask (Corning, cat #: 430825) with Growth Medium (DMEM/F12 […] (Hyclone, cat #: SH30023.02), 1× Pen/Strep (Invitrogen, cat #: 15140-122), 10% FBS (Tissue Culture Biologics, cat #: 101), […] G418 (Alfa Aesar, cat #: J62671), 1 μg/mL Tetracycline (Teknova, cat #: T3320)) were detached with 0.25% trypsin-EDTA (Invitrogen, cat #: 25200-056). Tetracycline-free treatment medium (15 mL DMEM/F12 (1:1) 1× Pen/step, with 2% FBS, Tet-system approved (Clontech, cat #: 631106) were then added to mix, transferred into a 50 ml conical tube (Falcon, cat #: 21008-918,) and spun at 1300 rpm for 5 min. Pelleted cells were then re-suspended/washed with 50 mL of 1×DPBS (Invitrogen, cat #: 14190-136) 2 times and 50 mL treatment medium twice. HepAD38 cells were then re-suspended with 10 mL of treatment medium, syringed and counted. Wells of 96-well clear bottom TC plate (Corning, cat #: 3904,) were seeded at 50,000 cells/well in 180 μL of treatment medium, and 20 μL of either 10% DMSO (Sigma, cat #: D4540) as controls or a 10× solution of test compounds in 10% DMSO in treatment media was added for a final compound concentration starting at 10 μM, and plates were incubated in 5% CO2 incubator at 37° C. for 5 days.
Subsequently viral load production was assayed by quantitative PCR (qPCR) of the HBV core sequence. PCR reaction mixture containing forward primers HBV-f 5′-CTGTGCCTTGGGTGGCTIT-3′ (IDT DNA), Reverse primers HBV-r 5′-[…]-3′ (IDT DNA), Fluorescent TaqMan™ Probes HBV-probe 5′-FAM/AGCTCCAAA/ZEN/[…]/3IABkFQ-3′ (IDT DNA), 10 μL/well of PerfeCTa® qPCR ToughMix® (Quanta Biosciences, Cat #: 95114-05K), and 6 μL/well of DEPC water (Alfa Aesar, cat #: J62087) was prepared. Four μL of supernatant was added to 16 μL of the reaction mixture in a qPCR plate (Applied Biosytems, Cat #: 4309849), sealed with a film (Applied Biosystems, Cat #: 4311971), centrifuged for a few seconds, and subsequently run on an Applied Biosystems VIIA7. The PCR mixture was incubated at 45° C. for 5 min, then 95° C. for 10 min, followed by 40 cycles of 10 seconds at 95° C. and 20 seconds at 60° C. Viral load was quantified against known HBV DNA standards by using ViiA™ 7 Software. Viral load in the supernatant from wells with treated cells were compared against viral load in supernatant from DMSO control wells (≥3 per plate). Cell viability assay was performed with CellTiter-Glo Luminescent Cell Viability Assay (Promega, cat #: G7573) with modification. Mixed appropriate amount of CellTiter-Glo (CTG) 1×DPBS in a 1:1 ratio, added 100 uL of the mixture to each well followed completely removal of all supernatant in each well without touching cell surface. Incubated the plate at room temperature for 10 min on an orbital shaker, and then read the plate with a plate reader (TECAN M1000 or Envision). EC50 or CC50 values were calculated through curve-fitting of the four-parameter nonlinear-logistic-regression model (GraphPad Prism or Dotmatics). CC50 values were all >10 μM.

[1] = Hepatitis B virus, HePAD38, 120 h

SMILES | EC50 [1] [nM] | EC50 [nM]
Cc1nc(-c2ccc(OCCN3CCCCC3)cc2)sc1CNC(=O)C1CC(C(=O)Nc2ccc(F)c(Cl)c2)N(C)S(=O)(=O)N1 (single isomer, unassigned) [1087-ISOMER-A, N3-(3-chloro-4-fluoro-phenyl)-2-methyl-N5-[[4-methyl-2-[4-[2-(1-piperidyl)ethoxy]phenyl]thiazol-5-yl]methyl]-1,1-dioxo-1,2,6-thiadiazinane-3,5-dicarboxamide] | < 50 | 
Cc1nc(-c2ccc(OCCN3CCCCC3)cc2)sc1CNC(=O)C1CC(C(=O)Nc2ccc(F)c(Cl)c2)N(C)S(=O)(=O)N1 (single isomer, unassigned) [1087-ISOMER-B, N3-(3-chloro-4-fluoro-phenyl)-2-methyl-N5-[[4-methyl-2-[4-[2-(1-piperidyl)ethoxy]phenyl]thiazol-5-yl]methyl]-1,1-dioxo-1,2,6-thiadiazinane-3,5-dicarboxamide] |  | 50 to 100
Cc1nc(-c2ccccc2Cl)sc1[C@H](NC(=O)C1CC(C(=O)Nc2ccc(F)c(Cl)c2)N(C)S(=O)(=O)N1)c1ccccc1 (single isomer, unassigned) [1100-ISOMER-A] | < 50 | 
Cc1nc(-c2ccccc2Cl)sc1[C@@H](NC(=O)C1CC(C(=O)Nc2ccc(F)c(Cl)c2)N(C)S(=O)(=O)N1)c1ccccc1 (single isomer, unassigned) [1100-ISOMER-B] | 100 to 10000 | 
Cc1nc(-c2ccccc2Cl)sc1[C@H](NC(=O)C1CC(C(=O)Nc2ccc(F)c(Cl)c2)N(C)S(=O)(=O)N1)c1ccccc1 (single isomer, unassigned) [1100-ISOMER-C] | 100 to 10000 | 
Cc1nc(-c2ccccc2Cl)sc1[C@@H](NC(=O)C1CC(C(=O)Nc2ccc(F)c(Cl)c2)N(C)S(=O)(=O)N1)c1ccccc1 (single isomer, unassigned) [1100-ISOMER-D] | 100 to 10000 | 
Cc1nc(-c2ccccc2F)sc1[C@H](NC(=O)C1CC(C(=O)Nc2ccc(F)c(Cl)c2)N(C)S(=O)(=O)N1)c1ccccc1 (single isomer, unassigned) [1101-ISOMER-A] | < 50 | 
Cc1nc(-c2ccccc2F)sc1[C@@H](NC(=O)C1CC(C(=O)Nc2ccc(F)c(Cl)c2)N(C)S(=O)(=O)N1)c1ccccc1 (single isomer, unassigned) [1101-ISOMER-B] | 100 to 10000 | 
Cc1nc(-c2ccccc2F)sc1[C@H](NC(=O)C1CC(C(=O)Nc2ccc(F)c(Cl)c2)N(C)S(=O)(=O)N1)c1ccccc1 (single isomer, unassigned) [1101-ISOMER-C] | 100 to 10000 | 
CN1C(C(=O)Nc2ccc(F)c(Cl)c2)CC(C(=O)NCc2cnc(N)s2)NS1(=O)=O (single isomer, unassigned) [1132-ISOMER-A, N5-[(2-aminothiazol-5-yl)methyl]-N3-(3-chloro-4-fluoro-phenyl)-2-methyl-1,1-dioxo-1,2,6-thiadiazinane-3,5-dicarboxamide] | 50 to 100 | 
CN1C(C(=O)Nc2ccc(F)c(Cl)c2)CC(C(=O)NCc2cnc(N)s2)NS1(=O)=O (single isomer, unassigned) [1132-ISOMER-B, N5-[(2-aminothiazol-5-yl)methyl]-N3-(3-chloro-4-fluoro-phenyl)-2-methyl-1,1-dioxo-1,2,6-thiadiazinane-3,5-dicarboxamide] |  | 100 to 10000
Cc1cn(-c2ccccc2)nc1CNC(=O)C1CC(C(=O)Nc2ccc(F)c(C#N)c2)N(C)S(=O)(=O)N1 (single isomer, unassigned) [1134-ISOMER-A, N3-(3-cyano-4-fluoro-phenyl)-2-methyl-N5-[(4-methyl-1-phenyl-pyrazol-3-yl)methyl]-1,1-dioxo-1,2,6-thiadiazinane-3,5-dicarboxamide] | 100 to 10000 | 
Cc1cn(-c2ccccc2)nc1CNC(=O)C1CC(C(=O)Nc2ccc(F)c(C#N)c2)N(C)S(=O)(=O)N1 (single isomer, unassigned) [1134-ISOMER-B, N3-(3-cyano-4-fluoro-phenyl)-2-methyl-N5-[(4-methyl-1-phenyl-pyrazol-3-yl)methyl]-1,1-dioxo-1,2,6-thiadiazinane-3,5-dicarboxamide] |  | < 50
